Measurements from US9278978B2, “6-Alkynyl Pyridine” (Boehringer Ingelheim International GmbH, priority 2013, dated 2016).

Target: cIAP1 BIR3 (Homo sapiens (Human), UniProt Q13490)
Assay: cIAP1 BIR3 binding assay (DELFIA), BIR3 domain-SMAC peptide interaction
Conditions: not given
Protocol: XIAP BIR3 and cIAP1 BIR3 Binding Assays (DELFIA)
Peptide […]-Lys(Biotin), representing the N-terminus of mature human SMAC(SMAC peptide), was used as interaction partner in the protein-peptide interaction assay.
BIR3 domains (10 nM) were incubated with SMAC peptide (10 nM) in assay buffer (50 mM Tris, 120 mM NaCl, 0.1% BSA, 1 mM DTT, 0.05% TritonX100) for one hour at room temperature in the presence of inhibitory compounds. The assay mixture was transferred to a strepatvidin coated plate and incubated for one hour at room temperature to allow binding of the biotinylated peptide and associated BIR3 domains to the plate. After several washing steps Eu labeled anti-GST antibody (e.g. Perkin Elmer DELFIA Eu-N1-antiGST AD0250) was added to detect BIR3 domain-SMAC peptide interactions according to Perkin Elmer's instructions. […] Time resolved Europium fluorescence was measured in a Wallac Victor using Standard assay settings.
DELFIA assay results were plotted against compound concentrations and Software GraphPad Prizm was used to calculate half maximal inhibitory concentrations (IC50 values).

IC50 [nM]	Compound
1	CNC(C)C(=O)Nc1cc(-c2ncnc3ncn(C)c23)cc(C#Cc2ccc3c(C)nccc3c2)n1 (centres unmarked) [Example 6, N-[4-(7-methyl-7H-purin-6-yl)-6-[2-(1-methylisoquinolin-6-yl)ethynyl]pyridin-2-yl]-2-(methylamino)propanamide]

Same assay, conditions: BIR3 domain 10 nM, SMAC peptide 10 nM; (S)-isomer (examples 1-34, 38-43) or racemate (examples 35-37); read-out: cIAP1 BIR-3 IC50

IC50 [nM]	Compound
136	CNC(C)C(=O)Nc1cc(-c2cccc3ncccc23)c(OC)c(C#Cc2ccccc2)n1 (centres unmarked) [Example 27, N-[5-methoxy-6-(2-phenylethynyl)-4-(quinolin-5-yl)pyridin-2-yl]-2-(methyl-amino)propanamide]
4010	CNC(C)C(=O)Nc1cc(-c2ccccc2F)cc(C#Cc2ccccc2)n1 (centres unmarked) [Example 32, N-[4-(2-fluorophenyl)-6-(2-phenylethynyl)pyridin-2-yl]-2-(methylamino)propanamide]
2	CNC(C)C(=O)Nc1cc(-c2ncnc3oc(C)c(C)c23)cc(C#Cc2ccccc2)n1 (centres unmarked) [Example 10, N-(4-{5,6-dimethylfuro[2,3-d]pyrimidin-4-yl}-6-(2-phenylethynyl)pyridin-2-yl)-2-(methylamino)propanamide]
282	CNC(C)C(=O)Nc1cc(-c2ccncc2)cc(C#Cc2ccccc2)n1 (centres unmarked) [Example 28, 2-(methylamino)-N-[6-(2-phenylethynyl)-4-(pyridin-4-yl)pyridin-2-yl]propanamide]
1	CNC(C)C(=O)Nc1cc(-c2ncnc3c(C)nn(C)c23)cc(C#Cc2ccc(-n3cnc(C)c3)cc2)n1 (centres unmarked) [Example 41, N-(4-{1,3-dimethyl-1H-pyrazolo[4,3-d]pyrimidin-7-yl}-6-{2-[4-(4-methyl-1H-imidazol-1-yl)phenyl]-ethynyl}pyridin-2-yl)-2-(methylamino)propanamide]
1	CNC(C)C(=O)Nc1cc(-c2ncnc3c(C)nn(C)c23)cc(C#Cc2cc(F)c3ncccc3c2)n1 (centres unmarked) [Example 42, N-(4-{1,3-dimethyl-1H-pyrazolo[4,3-d]pyrimidin-7-yl}-6-[2-(8-fluoroquinolin-6-yl)ethynyl]pyridin-2-yl)-2-(methylamino)propanamide]
11	CNC(C)C(=O)Nc1cc(-c2cccc3cnn(C)c23)cc(C#Cc2ccc3c(c2)CC(=O)N3C)n1 (centres unmarked) [Example 12, N-[4-(1-methyl-1H-indazol-7-yl)-6-[2-(1-methyl-2-oxo-2,3-dihydro-1H-indol-5-yl)ethynyl]pyridin-2-yl]-2-(methylamino)propanamide]
172	CNC(C)C(=O)Nc1cc(-c2cccnc2)c(-c2cncnc2)c(C#Cc2ccccc2)n1 (racemic) [Example 36, 2-(methylamino)-N-[6-(2-phenylethynyl)-4-(pyridin-3-yl)-5-(pyrimidin-5-yl)-pyridin-2-yl]propanamide]
1	CNC(C)C(=O)Nc1cc(-c2cnc3cccc(C)n23)cc(C#Cc2ccc3c(C)nccc3c2)n1 (centres unmarked) [Example 13, 2-(methylamino)-N-(4-{5-methylimidazo[1,2-a]pyridin-3-yl}-6-[2-(1-methylisoquinolin-6-yl)ethynyl]pyridin-2-yl)propanamide]
12	CNC(C)C(=O)Nc1cc(-c2cccc3cnn(C)c23)c(OC)c(C#Cc2ccccc2)n1 (centres unmarked) [Example 26, N-[5-methoxy-4-(1-methyl-1H-indazol-7-yl)-6-(2-phenylethynyl)pyridin-2-yl]-2-(methylamino)propanamide]
250	CNC(C)C(=O)Nc1cc(-c2ccncc2)c(-c2cncnc2)c(C#Cc2ccccc2)n1 (racemic) [Example 35, 2-(methylamino)-N-[6-(2-phenylethynyl)-4-(pyridin-4-yl)-5-(pyrimidin-5-yl)pyridin-2-yl]propanamide]
1	CNC(C)C(=O)Nc1cc(-c2cccc3nc(C)c(C)n23)cc(C#Cc2ccc3c(C)nccc3c2)n1 (centres unmarked) [Example 11, N-(4-{2,3-dimethylimidazo[1,2-a]pyridin-5-yl}-6-[2-(1-methylisoquinolin-6-yl)ethynyl]pyridin-2-yl)-2-(methylamino)propanamide]
59	CNC(C)C(=O)Nc1cc(-c2c(OC)ccc3nc(C)ccc23)cc(C#Cc2ccccc2)n1 (centres unmarked) [Example 5, N-[4-(6-methoxy-2-methylquinolin-5-yl)-6-(2-phenylethynyl)pyridin-2-yl]-2-(methylamino)propanamide]
1	CNC(C)C(=O)Nc1cc(-c2ncnc3c(C)nn(C)c23)cc(C#Cc2ccc3c(C)nccc3c2)n1 (centres unmarked) [Example 2, N-(4-{1,3-dimethyl-1H-pyrazolo[4,3-d]pyrimidin-7-yl}-6-[2-(1-methylisoquinolin-6-yl)ethynyl]pyridin-2-yl)-2-(methylamino)propanamide]
325	CNC(C)C(=O)Nc1cc(-c2ccc(OC)nc2)cc(C#Cc2ccccc2)n1 (centres unmarked) [Example 31, N-[4-(6-methoxypyridin-3-yl)-6-(2-phenylethynyl)pyridin-2-yl]-2-(methylamino)propanamide]
352	CNC(C)C(=O)Nc1cc(-c2ccc(C(F)(F)F)nc2)cc(C#Cc2ccccc2)n1 (centres unmarked) [Example 30, 2-(methylamino)-N-[6-(2-phenylethynyl)-4-[6-(trifluoromethyl)pyridin-3-yl]pyridin-2-yl]propanamide]

Second part, the compound before the results:

Compound	IC50 [nM]
CNC(C)C(=O)Nc1cc(-c2ncnc3c(C)nn(C)c23)cc(C#Cc2ccc3c(cnn3C)c2)n1 (centres unmarked) [Example 1, N-(4-{1,3-dimethyl-1H-pyrazolo[4,3-d]pyrimidin-7-yl}-6-[2-(1-methyl-1H-indazol-5-yl)ethynyl]pyridin-2-yl)-2-(methylamino)propanamide]	1
CNC(C)C(=O)Nc1cc(-c2ncnc3c(C)nn(C)c23)cc(C#Cc2ccn3c(C)ncc3c2)n1 (centres unmarked) [Example 4, N-(4-{1,3-dimethyl-1H-pyrazolo[4,3-d]pyrimidin-7-yl}-6-(2-{3-methylimidazo[1,5-a]pyridin-7-yl}ethynyl)pyridin-2-yl)-2-(methylamino)propanamide]	1
CNC(C)C(=O)Nc1cc(-c2nc(C)nc3nn(C)c(C)c23)cc(C#Cc2cccs2)n1 (centres unmarked) [Example 22, 2-(methylamino)-N-{6-[2-(thiophen-2-yl)ethynyl]-4-{trimethyl-2H-pyrazolo[3,4-d]pyrimidin-4-yl}pyridin-2-yl}propanamide]	1
CNC(C)C(=O)Nc1cc(-c2nc(C)nc3nn(C)c(C)c23)cc(C#Cc2ccc3c(ccc(=O)n3C)c2)n1 (centres unmarked) [Example 19, N-{6-[2-(1-methyl-2-oxo-1,2-dihydroquinolin-6-yl)ethynyl]-4-{trimethyl-2H-pyrazolo[3,4-d]pyrimidin-4-yl}pyridin-2-yl}-2-(methylamino)propanamide]	2
CNC(C)C(=O)Nc1cc(-c2nc(C)nc3nn(C)c(C)c23)cc(C#Cc2cnc(-n3cnc(C)c3)nc2)n1 (centres unmarked) [Example 21, N-(6-{2-[2-(4-methyl-1H-imidazol-1-yl)pyrimidin-5-yl]ethynyl}-4-{trimethyl-2H-pyrazolo[3,4-d]pyrimidin-4-yl}pyridin-2-yl)-2-(methyl-amino)propanamide]	1
CCNC(CC)C(=O)Nc1cc(-c2ncnc3c(C)nn(C)c23)cc(C#Cc2ccc3c(C)nccc3c2)n1 (racemic) [Example 37, N-(4-{1,3-dimethyl-1H-pyrazolo[4,3-d]pyrimidin-7-yl}-6-[2-(1-methylisoquinolin-6-yl)ethynyl]pyridin-2-yl)-2-(ethylamino)butanamide]	6
CNC(C)C(=O)Nc1cc(-c2ncnc3c(C)nn(C)c23)cc(C#Cc2cnc3c(cnn3C)c2)n1 (centres unmarked) [Example 43, N-(4-{1,3-dimethyl-1H-pyrazolo[4,3-d]pyrimidin-7-yl}-6-(2-{1-methyl-1H-pyrazolo[3,4-b]pyridin-5-yl}ethynyl)pyridin-2-yl)-2-(methylamino)propanamide]	1
CNC(C)C(=O)Nc1cc(-c2nc(C)nc3nn(C)c(C)c23)cc(C#Cc2ccc3c(cnn3C)c2)n1 (centres unmarked) [Example 20, N-{6-[2-(1-methyl-1H-indazol-5-yl)ethynyl]-4-{trimethyl-2H-pyrazolo[3,4-d]pyrimidin-4-yl}pyridin-2-yl}-2-(methylamino)-propanamide]	1
CNC(C)C(=O)Nc1cc(-c2ncnc3c(C)nn(C)c23)cc(C#Cc2cc(F)cc(F)c2)n1 (centres unmarked) [Example 40, N-{6-[2-(3,5-difluorophenyl)ethynyl]-4-{1,3-dimethyl-1H-pyrazolo[4,3-d]pyrimidin-7-yl}pyridin-2-yl}-2-(methyl-amino)propanamide]	1
CNC(C)C(=O)Nc1cc(-c2c(C)nc(C)c3c(=O)n(C)n(C)c23)cc(C#Cc2ccc3c(C)nccc3c2)n1 (centres unmarked) [Example 14, 2-(methylamino)-N-{6-[2-(1-methylisoquinolin-6-yl)ethynyl]-4-{1,2,4,6-tetramethyl-3-oxo-1H,2H,3H-pyrazolo[4,3-c]pyridin-7-yl}pyridin-2-yl}propanamide]	1
CNC(C)C(=O)Nc1cc(-c2nc(C)nc3nn(C)c(C)c23)cc(C#Cc2ccc3c(C)nccc3c2)n1 (centres unmarked) [Example 18, 2-(methylamino)-N-{6-[2-(1-methylisoquinolin-6-yl)ethynyl]-4-{trimethyl-2H-pyrazolo[3,4-d]pyrimidin-4-yl}pyridin-2-yl}-propanamide]	1
CNC(C)C(=O)Nc1cc(-c2ncnc3c(C)nn(C)c23)cc(C#Cc2cc(C)nc3c(F)cccc23)n1 (centres unmarked) [Example 3, N-(4-{1,3-dimethyl-1H-pyrazolo[4,3-d]pyrimidin-7-yl}-6-[2-(8-fluoro-2-methylquinolin-4-yl)ethynyl]pyridin-2-yl)-2-(methylamino)propanamide]	1
